Results from paper PMC10104254, “Development of a novel angiotensin converting enzyme 2 stimulator with broad implications in SARS-CoV2 and type 1 diabetes” (Research Square, 2023).
Peptide text beside a SMILES is read from it.

Assays:
[1] = Stability of 2A in cell culture (HEK293), LCMS; assay type: in vitro ADME; settings: peptide 9 μM, 60 min; for remaining at 1 h, 9 μM: human, HEK293 cells in culture, HEK293 cells 20,000 cells/well, Opti-MEM reduced serum media, mean ± SEM, read-out: amount remaining in the medium of HEK293 cells at T60 min compared with T0 min
Description: HEK293 (passage 24) were seeded into tissue-culture-grade 96-well plates at a density of 20,000 cells/well. After 24 h, cells were washed with PBS and replaced with Opti-MEM reduced serum media containing amidated or non-amidated 2A (9 μM). Aliquots of equal volume were taken at T = 0 and 60 min. Amidated 2A was added to control wells having media (no cells) only. Samples were immediately acidified in 0.1% TFA, snap frozen in dry ice and stored in −80 °C until analyzed by LCMS.
Samples were analyzed by LC-MS/MS on a Shimadzu Nexera uHPLC (Japan) coupled to a Triple Tof 5600 mass spectrometer (ABSCIEX, Canada) equipped with a duo electrospray ion source. One μl of each extract was injected onto a 2.1 mm × 100 mm Zorbax C18 1.8um column (Agilent) at 200 μL/min. Linear gradients of 1–50% solvent B over 7 min at 200 μL/min flow rate, followed by a steeper gradient from 50% to 98% solvent B in 1 min were used for peptide elution. Solvent B was held at 98% for 3 min for washing the column and returned to 1% solvent B for equilibration prior to the next sample injection. Solvent A consisted of 0.1% formic acid (aq) and solvent B contained 90/10 acetonitrile/ 0.1% formic acid (aq). The ionspray voltage was set to 5500 V, declustering potential (DP) 100 V, curtain gas flow 25, nebuliser gas 1 (GS1) 50, GS2 to 60, interface heater at 150 °C and the turbo heater to 500 °C. The mass spectrometer acquired 500ms full scan high resolution, at 30,000 resolving power, TOF-MS data over the mass range […].
Both amidated and non amidated 2A were quantified using the [M+2H]^2+ doubly charged molecular ion from m/z 575.32 to 575.37.
The data was acquired using Analyst TF 1.6 and quantification was carried out using MultiQuant 2.1.1 software (ABSCIEX, Canada).

[2] = Pharmacokinetics and tissue distribution of 2A in normal mice; settings: LC-MS/MS
Description: Wild-type C57BL/6J mice (male, 10–12 weeks old) were purchased from the Animal Resources Centre (Western Australia, Australia). All animals were housed within the University of Queensland Biological Resources animal facility in a pathogen-free environment with a 12 h dark/12 h light cycle and free access to food and water.
The pharmacokinetic (PK) profile and biodistribution of 2A peptide was assessed in mice (n=5; per route at a dose of 1 mg/kg) after intravenous (i.v; tail vein), subcutaneous (s.c; between the shoulders) and intranasal (i.n; 10μl in each nostril with total volume of 20μl) administration. Blood samples were collected at 10, 20, 30, 45, 60 mins, 2 h and 4 h after drug administration via the tail vein using a microsampling technique[27]. At the terminal time point (24 h post administration), animals were anaesthetised with zolazepam (50 mg/kg) and xylazine (12 mg/kg) via i.p. injection. Blood samples were then collected via cardiac puncture as well as tail bleed to validate the sampling protocol. Plasma was isolated from blood samples by centrifugation (2000 g for 10 min at 4 °C), and stored at −80 °C. Following blood collection at the termination time point, mice were immediately perfused transcardially with saline to remove blood from tissues. Harvested tissue samples were then weighed and homogenized in an equal weight volume of milliQ water. On the day of analysis, aliquots (5 μL) of thawed plasma samples and 100μL of tissue homogenates were mixed with internal standard (10 μL) and processed for peptide quantification using a semi-validated LC–MS/MS method as described previously[28].
Quantification of 2A peptide was performed using AcF-[OPdChaWR] peptide as an internal standard as described previously[28]. […] Concentrations of 2A peptide in samples was measured against known concentration of internal standard and peak area ratio of analyte to internal standard. […]

rhACE2 [3] = target: T1, rhACE2 (Homo sapiens, UniProt Q9BYF1); assay: ACE2-dependent breakdown of angiotensin II and formation of angiotensin 1-7 by LCMS; assay type: biochemical; settings: 2A 1.7 μM, n=4
T1 construct: purchased R&D systems
Description: The effect of 2A on ACE2-mediated cleavage of angiotensin II was assessed using LCMS. rhACE2 (0.1 ng/μL) was incubated with 2A (1.7 μM) for 1 h at 37 °C. Angiotensin II (0.02 μg/μL) was then added. Aliquots of equal volumes were collected at T = 0, 3, 6 and 24-h. Aliquots were immediately acidified with trifluoroacetic acid (0.1% final). Samples were snap frozen in dry ice and lyophilized for analysis by LCMS.
Prior to loading, samples were reconstituted in 100 μL loading buffer. Samples were analysed using a quadrupole TOF mass spectrometer (MicroTOFq, Bruker Daltonics, Bremen, Germany) coupled online with a 1200 series nano HPLC (Agilent Technologies). Samples were loaded onto a zorbax 300SB reversed-phase trap column equilibrated with 95% buffer A (0.1% formic acid). The flow rate was set to 10 μL/min. The components were eluted over a 10 min gradient to 70% buffer B (80% acetonitrile, 0.1% formic acid) and peptides were separated on zorbax 300SB-C18 nano column (75 μm × 15 cm, 3.5 μm). The eluant was nebulised and ionised using the Bruker nano-ESI source with a capillary voltage of 4500 V, dry gas at 180° C, flow rate set at […] and nebuliser gas pressure at 300 mbar. The mass spectrometry acquisition was in selected ion monitoring mode after selected ion extraction of the mass spectrometry spectra. […]

[4] = Streptozotocin (STZ) model of type 1 diabetes in mice; assay type: in vivo, C57Bl/6J mice
Description: Streptozotocin (STZ; 150 mg/kg; i.p) was used to induce type 1 diabetes in male C57BI/6J mice. Blood glucose was measured 1 week post STZ injection to confirm the presence of diabetes (BG levels > 15 mmol/L at 1 week post STZ injection was included in this study). After establishment of diabetes (T0), mice were randomly allocated to receive 2A (1 mg/kg/ day; 10% DMSO in saline) or vehicle (10% DMSO in saline) via subcutaneous minipumps for a period 3 months. Non fasting blood glucose levels were measured every 2 weeks until study end (T3), and body weight was measured daily, until study end. 24-h urine samples were collected at 1 month intervals since commencement of 2A or its vehicle. (Detailed Methods section is provided at the end of the Discussion).
Streptozotocin (STZ) is a widely used model of type I diabetes which closely mimic the human disease[31],[32]. Male C57Bl/6J mice were purchased from Animal Resources Centre (Western Australia, Australia) and these mice were acclimatized for at least one week prior to inducing diabetes. […] Mouse body weight was measured daily. Blood glucose levels were measured via tail bleed 1-week post-STZ injection to confirm the establishment of diabetes (CareSens N; iSENS, Seoul, Korea). […] Blood glucose levels were measured every 2 weeks until the end of the treatment period. […]

rhACE2 [5] = target: T1, rhACE2; design: method as in PMID 26931059; settings: 20 amino acid peptide from Bothrops asper myotoxin; cited from earlier work
SARS-CoV-2 = assay type: cell-based; settings: 350 μM, pre-treated apically and basolaterally 1 h, then added every 12 h for 48 h; MOI 3; n=3 donors; versus PBS

T1 sequence (Q9BYF1 18-805): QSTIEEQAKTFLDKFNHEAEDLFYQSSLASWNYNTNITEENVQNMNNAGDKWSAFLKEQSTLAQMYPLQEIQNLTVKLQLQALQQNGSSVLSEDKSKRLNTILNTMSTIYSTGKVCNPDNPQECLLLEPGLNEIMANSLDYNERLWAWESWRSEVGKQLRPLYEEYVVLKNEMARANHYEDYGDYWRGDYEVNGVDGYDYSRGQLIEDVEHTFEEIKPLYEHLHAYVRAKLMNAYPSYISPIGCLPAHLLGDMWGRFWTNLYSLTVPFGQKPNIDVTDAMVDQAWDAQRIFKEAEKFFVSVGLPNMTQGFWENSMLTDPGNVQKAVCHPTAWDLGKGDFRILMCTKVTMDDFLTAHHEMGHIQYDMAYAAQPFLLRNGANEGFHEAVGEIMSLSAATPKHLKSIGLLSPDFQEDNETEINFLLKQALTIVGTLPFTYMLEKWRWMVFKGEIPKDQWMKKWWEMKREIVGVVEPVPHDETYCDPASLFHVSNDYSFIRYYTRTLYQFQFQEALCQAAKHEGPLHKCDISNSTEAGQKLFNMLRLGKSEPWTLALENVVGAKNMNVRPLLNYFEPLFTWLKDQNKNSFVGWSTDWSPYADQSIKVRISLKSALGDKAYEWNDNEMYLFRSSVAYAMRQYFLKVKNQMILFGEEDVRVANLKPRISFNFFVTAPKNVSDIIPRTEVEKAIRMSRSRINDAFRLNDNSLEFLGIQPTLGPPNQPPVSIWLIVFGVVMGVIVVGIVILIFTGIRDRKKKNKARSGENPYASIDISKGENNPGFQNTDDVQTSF

CC[C@H](C)[C@H](NC(=O)[C@H](CCSC)NC(=O)[C@H](CCCCN)NC(=O)CNC(=O)[C@H](CC(C)C)NC(=O)[C@H](CCC(=O)O)NC(=O)[C@H](Cc1ccccc1)NC(=O)[C@H](CC(C)C)NC(=O)[C@@H](N)CO)C(=O)N[C@@H](CC(C)C)C(=O)O [non-amidated 2A] (H-SLFELGKMIL-OH; N-terminus assumed)
remaining at 1 h, 9 μM [1]: 29 ± 3%

CC[C@H](C)[C@H](NC(=O)[C@H](CCSC)NC(=O)[C@H](CCCCN)NC(=O)CNC(=O)[C@H](CC(C)C)NC(=O)[C@H](CCC(=O)O)NC(=O)[C@H](Cc1ccccc1)NC(=O)[C@H](CC(C)C)NC(=O)[C@@H](N)CO)C(=O)N[C@@H](CC(C)C)C(N)=O [2A] (H-SLFELGKMIL-NH2)
detection in plasma 24 h post administration ([2]; 1 mg/kg i.v., s.c. or i.n., C57BL/6J mice, n=5 per route): a small amount of peptide was still detected | clearance from the circulation ([2]; 1 mg/kg i.v., s.c. or i.n., C57BL/6J mice, plasma, n=5 per route): rapidly cleared from the circulation over the first 4h | tissue distribution 24-h post administration (heart, lung, spleen, kidney, brain and spinal cord) ([2]; 1 mg/kg, irrespective of the route (i.v., s.c., i.n.), tissue homogenates): detectable at low concentrations | remaining at 1 h, 9 μM [1]: 54 ± 4% | amount remaining in the cell culture medium in the absence of cells at T60 min ([1]; media only (no cells), Opti-MEM, possible adherence to plastic): 63 ± 14% | increase of Ang 1-7 levels in the presence of ACE2 + 2A compared to ACE2 alone (rhACE2 [3]): 165 ± 12% | reduction of Ang II levels in the presence of ACE2 + 2A (rhACE2 [3]; over a 24-h period, ACE2 alone 58 ± 4%): 83 ± 5% | effects on organ weight ([4]; 2A 1 mg/kg/day, 3 months): minimal effects | untoward effects in animal models ([4]; pre-clinical animal models of this paper): did not observe any untoward effects

20 amino acid peptide: synthetic peptide corresponding to the first 20 amino acids of Bothrops asper myotoxin II
effect on recombinant human ACE2 enzyme activity (rhACE2 [5]): stimulates recombinant human ACE2 enzyme activity

N=C(N)c1ccc(/N=N/Nc2ccc(C(=N)N)cc2)cc1 [DIZE, diminazene]
viral titres produced by epithelial cells at 48 hours post-infection (SARS-CoV-2): not significantly different
